Peptide text beside a SMILES is read from it.
Experiments:
[1] = ANTS/DPX liposome leakage assay; details: for Peptide Concentration-induced 50 % ANTS/DPX leakage at pH 4.8 (L/P), 3POPC/1POPG Vesicle / Peptide Concentration-induced 50 % ANTS/DPX leakage at pH 4.8 (L/P), POPC Vesicle / Peptide Concentration-induced 50 % ANTS/DPX leakage at pH 7.4 (L/P), 3POPC/1POPG Vesicle / Peptide Concentration-induced 50 % ANTS/DPX leakage at pH 7.4 (L/P), POPC Vesicle: 0.5 mM vesicles, peptide 0-20 µM, 3 h incubation, lipid per peptide; for Peptide Concentration-induced 50 % ANTS/DPX leakage at pH 4.8 (L/P), 3POPC/1POPG Vesicle / Peptide Concentration-induced 50 % ANTS/DPX leakage at pH 4.8 (L/P), POPC Vesicle: HCl-adjusted PBS 1X pH 4.8; for Peptide Concentration-induced 50 % ANTS/DPX leakage at pH 7.4 (L/P), 3POPC/1POPG Vesicle / Peptide Concentration-induced 50 % ANTS/DPX leakage at pH 7.4 (L/P), POPC Vesicle: PBS 1X pH 7.4, high ratio = more potent; for change of ANTS/DPX dye leakage / liposome selectivity at pH 4.8: pH = 4.8 compared with physiological pH, anionic versus neutral liposomes
Outline: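 Extruded 0.1 µm POPC or POPC/POPG (3:1) vesicles were loaded with 5 mM ANTS and 12.5 mM DPX, gel-filtered, then used at 0.5 mM lipid with titrated peptide at pH 7.4 or pH 4.8 (acidified PBS). Leakage was read at ex 350/em 510 nm after 3 h against 10% Triton maximum, expressed as lipid/peptide ratio for 50% leakage.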

[2] = Tryptophan fluorescent binding assay; details: tryptophan fluorescence; 50 µM peptide, lipid titrated 0-5000 µM; phosphate buffered saline 1X, pH 7.4; values as lipid per peptide
Outline: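 Tryptophan fluorescence was used to follow binding of peptide, fixed at 50 µM, to large unilamellar vesicles of POPC:POPG (3:1 ratio) titrated into phosphate buffered saline (1X, pH 7.4). After 1 h incubation, spectra were taken on a BioTek Cytation 5 reader with excitation at 280 nm and emission at 300 to 450 nm (9 nm slits), averaging three scans.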

HMLER = experiment: cells; assay type: cell-based, human; details: 72 h
Source text: (§1) […], and MCF-10A cells were maintained in MEGM with supplements and growth factors bovine pituitary extract, hydrocortisone, human epidermal growth factor, insulin, and gentamicin/amphotericin-B.

MCF‐10A = experiment: cells; assay type: cell-based, human; details: 72 h
Source text: as §1

HMLER‐shEcad = experiment: cells; assay type: cell-based, human; details: 72 h
Source text: as §1

HEK293T = experiment: cells; assay type: cell-based, human; details: 72 h
U2OS = assay type: cell-based, human; details: 72 h

Compound	Lipid Concentration-induced 50% Peptide Binding (L/P), 3POPC/1POPG Vesicle [2] [L/P]	Lipid Concentration-induced 50% Peptide Binding (L/P), POPC Vesicle [2] [L/P]	IC50 (HMLER) [µM]	IC50 (MCF‐10A) [µM]	IC50 (HMLER‐shEcad) [µM]	IC50 (U2OS) [µM]	Peptide Concentration-induced 50 % ANTS/DPX leakage at pH 4.8 (L/P), 3POPC/1POPG Vesicle [1] [L/P]	Peptide Concentration-induced 50 % ANTS/DPX leakage at pH 4.8 (L/P), POPC Vesicle [1] [L/P]	Peptide Concentration-induced 50 % ANTS/DPX leakage at pH 7.4 (L/P), 3POPC/1POPG Vesicle [1] [L/P]	Peptide Concentration-induced 50 % ANTS/DPX leakage at pH 7.4 (L/P), POPC Vesicle [1] [L/P]	IC50 (HEK293T) [µM]	change of ANTS/DPX dye leakage / liposome selectivity at pH 4.8 [1]
CC(C)C[C@H](NC(=O)CN)C(=O)N[C@@H](CC(C)C)C(=O)N[C@@H](CC(=O)O)C(=O)N[C@@H](CC(C)C)C(=O)N[C@@H](CC(C)C)C(=O)N[C@@H](CCCCN)C(=O)N[C@@H](CC(C)C)C(=O)N[C@@H](CC(C)C)C(=O)N[C@@H](CC(C)C)C(=O)N[C@@H](CCCCN)C(=O)N[C@@H](C)C(=O)N[C@@H](C)C(=O)NCC(=O)N[C@@H](Cc1c[nH]c2ccccc12)C(N)=O [DKK] (H-GLLDLLKLLLKAAGW-NH2)	6.88	2.75	1.95 ± 0.35	2.57 ± 0.52	1.2 ± 0.14	10.4 ± 1.7	227	47	156	463	3.4 ± 0.28	–
CC(C)C[C@H](NC(=O)CN)C(=O)N[C@@H](CC(C)C)C(=O)N[C@@H](CCCCN)C(=O)N[C@@H](CC(C)C)C(=O)N[C@@H](CC(C)C)C(=O)N[C@@H](CCC(=O)O)C(=O)N[C@@H](CC(C)C)C(=O)N[C@@H](CC(C)C)C(=O)N[C@@H](CC(C)C)C(=O)N[C@@H](CCCCN)C(=O)N[C@@H](C)C(=O)N[C@@H](C)C(=O)NCC(=O)N[C@@H](Cc1c[nH]c2ccccc12)C(N)=O [KEK] (H-GLLKLLELLLKAAGW-NH2)	0.50	0.47	1.6 ± 0.14	1.55 ± 0.07	1.35 ± 0.07	8.15 ± 0.49	126	110	438	1173	3.2 ± 0.14	–
CC(C)C[C@H](NC(=O)CN)C(=O)N[C@@H](CC(C)C)C(=O)N[C@@H](CCC(=O)O)C(=O)N[C@@H](CC(C)C)C(=O)N[C@@H](CC(C)C)C(=O)N[C@@H](CCCCN)C(=O)N[C@@H](CC(C)C)C(=O)N[C@@H](CC(C)C)C(=O)N[C@@H](CC(C)C)C(=O)N[C@@H](CCCCN)C(=O)N[C@@H](C)C(=O)N[C@@H](C)C(=O)NCC(=O)N[C@@H](Cc1c[nH]c2ccccc12)C(N)=O [EKK] (H-GLLELLKLLLKAAGW-NH2)	0.63	1.50	1.72 ± 0.21	1.7 ± 0.11	1.19 ± 0.4	12.2 ± 1.84	219	60	235	1095	3.35 ± 0.49	–

Continued, in another order:

Lipid Concentration-induced 50% Peptide Binding (L/P), 3POPC/1POPG Vesicle [2] [L/P]	Lipid Concentration-induced 50% Peptide Binding (L/P), POPC Vesicle [2] [L/P]	IC50 (HMLER) [µM]	IC50 (MCF‐10A) [µM]	IC50 (HMLER‐shEcad) [µM]	IC50 (U2OS) [µM]	Compound	Peptide Concentration-induced 50 % ANTS/DPX leakage at pH 4.8 (L/P), 3POPC/1POPG Vesicle [1] [L/P]	Peptide Concentration-induced 50 % ANTS/DPX leakage at pH 4.8 (L/P), POPC Vesicle [1] [L/P]	Peptide Concentration-induced 50 % ANTS/DPX leakage at pH 7.4 (L/P), 3POPC/1POPG Vesicle [1] [L/P]	Peptide Concentration-induced 50 % ANTS/DPX leakage at pH 7.4 (L/P), POPC Vesicle [1] [L/P]	IC50 (HEK293T) [µM]	change of ANTS/DPX dye leakage / liposome selectivity at pH 4.8 [1]
0.82	0.46	21.1 ± 6.93	79 ± 11.3	9.5 ± 0.99	185 ± 7	CC(C)C[C@H](NC(=O)CN)C(=O)N[C@@H](CC(C)C)C(=O)N[C@@H](Cc1c[nH]cn1)C(=O)N[C@@H](CC(C)C)C(=O)N[C@@H](CC(C)C)C(=O)N[C@@H](Cc1c[nH]cn1)C(=O)N[C@@H](CC(C)C)C(=O)N[C@@H](CC(C)C)C(=O)N[C@@H](CC(C)C)C(=O)N[C@@H](Cc1c[nH]cn1)C(=O)N[C@@H](C)C(=O)N[C@@H](C)C(=O)NCC(=O)N[C@@H](Cc1c[nH]c2ccccc12)C(N)=O [HHH] (H-GLLHLLHLLLHAAGW-NH2)	50	173	469	1133	30.6 ± 4.81	–
3.50	0.88	28.6 ± 10.8	> 200	11 ± 1.06	106 ± 14	CC(C)C[C@H](NC(=O)CN)C(=O)N[C@@H](CC(C)C)C(=O)N[C@@H](Cc1c[nH]cn1)C(=O)N[C@@H](CC(C)C)C(=O)N[C@@H](CC(C)C)C(=O)N[C@@H](CCC(=O)O)C(=O)N[C@@H](CC(C)C)C(=O)N[C@@H](CC(C)C)C(=O)N[C@@H](CC(C)C)C(=O)N[C@@H](Cc1c[nH]cn1)C(=O)N[C@@H](C)C(=O)N[C@@H](C)C(=O)NCC(=O)N[C@@H](Cc1c[nH]c2ccccc12)C(N)=O [HEH] (H-GLLHLLELLLHAAGW-NH2)	24	173	505	995	8.8 ± 1.7	increased selectivity for neutral bilayers
0.69	0.94	25.4 ± 2.76	150 ± 71	16.1 ± 3.18	117 ± 7	CC(C)C[C@H](NC(=O)CN)C(=O)N[C@@H](CC(C)C)C(=O)N[C@@H](CCC(=O)O)C(=O)N[C@@H](CC(C)C)C(=O)N[C@@H](CC(C)C)C(=O)N[C@@H](Cc1c[nH]cn1)C(=O)N[C@@H](CC(C)C)C(=O)N[C@@H](CC(C)C)C(=O)N[C@@H](CC(C)C)C(=O)N[C@@H](Cc1c[nH]cn1)C(=O)N[C@@H](C)C(=O)N[C@@H](C)C(=O)NCC(=O)N[C@@H](Cc1c[nH]c2ccccc12)C(N)=O [EHH] (H-GLLELLHLLLHAAGW-NH2)	80	386	981	1043	5.9 ± 0.14	increased selectivity for neutral bilayers

— PMC9069370, “Integrated Design of a Membrane‐Lytic Peptide‐Based Intravenous Nanotherapeutic Suppresses Triple‐Negative Breast Cancer” (Advanced Science, 2022)
